System: patients of Parkinson's disease experiencing motor fluctuations
Experiment: Multivariate logistic regression analysis of patient baseline factors associated with efficacy of istradefylline (odds ratios)
Assay type: in vivo, human
Description: The cut-off value for the treatment effect used to determine the efficacy of istradefylline was defined as a reduction in OFF time (1 hour or longer), an increase in ON time without troublesome dyskinesia (1 hour or longer), and an improvement in UPDRS Part III score (3 points or more) from the clinically meaningful point of view. […] Further, with respect to the UPDRS Part II score at OFF state, an improvement of 1 point or more from the sensitivity/(1-specificity) curve (ROC curve) using the UPDRS Part II score and the CGI-I score was defined as the cut-off of the effect.
The study of baseline factors having a favorable effect on the respective outcomes of the efficacy of istradefylline was performed by multivariate logistic regression analysis controlling for 12 baseline factors, which were expressed as the odds ratio (OR) and 95% confidence interval (CI). The efficacy outcomes included daily OFF time, ON time without troublesome dyskinesia, UPDRS Part III score at ON state, CGI-I, and UPDRS Part II score at OFF state. As covariates in the logistic regression analysis, age, sex, the presence or absence of dyskinesia history (determined based on the patient diary at baseline), mean daily OFF time, total UPDRS Part III score, mH&Y score at ON state and OFF state, concomitant drugs, duration of Parkinson's disease (duration of PD), duration of motor complications, L-DOPA dose, and levodopa-equivalent dose were used.
In this study, with respect to the outcomes under the treatment with istradefylline, analysis of baseline factors associated with expressing a more favorable effect was performed according to the following three steps. First, interactions between the treatment with istradefylline (two doses: 20 mg and 40 mg) and 12 baseline factors were evaluated based on type III p-value by multivariate logistic regression analysis (an index for evaluating whether or not the heterogeneity (interaction) occurs in the association between the treatment and the outcome due to a certain baseline factor). As the second step, an odds ratio (OR) was estimated for the baseline factor associated with the achievement of a more favorable effect according to the dose group of istradefylline if a significant interaction is observed between the treatment with istradefylline and the baseline factor. In addition, OR was estimated for the baseline factor associated with the achievement of a more favorable effect in all patient groups if an interaction is not observed between the treatment with istradefylline and the baseline factor.
A two-tailed p value <0.05 and an interaction p value <0.10 were determined to be statistically significant. All analyses were performed using SAS software version 9.2 or 9.3 (SAS Institute, Inc., Cary, N.C., USA).

[1] = age ≥65 vs <65 y (ref), 20 and 40 mg/day together
[2] = baseline UPDRS Part III score ≥20 vs <20 (ref), 20 and 40 mg/day together
[3] = baseline m Hoehn & Yahr scale at OFF state ≥3 vs <3 (ref), 20 and 40 mg/day together
[4] = baseline mean daily OFF time 4 to <8 h vs <4 h (ref), 20 mg/day
[5] = baseline mean daily OFF time 4 to <8 h vs <4 h (ref), 40 mg/day
[6] = baseline mean daily OFF time 4 to <8 h vs <4 h (ref), 20 and 40 mg/day together
[7] = baseline mean daily OFF time ≥8 h vs <4 h (ref), 20 mg/day
[8] = baseline mean daily OFF time ≥8 h vs <4 h (ref), 40 mg/day
[9] = baseline mean daily OFF time ≥8 h vs <4 h (ref), 20 and 40 mg/day together

In the case of `CCn1c(=O)c2c(nc(/C=C/c3ccc(OC)c(OC)c3)n2C)n(CC)c1=O` [istradefylline], the “Odds ratio, increase in ON time without troublesome dyskinesia (1 hour or longer)” value (age ≥65 vs <65 y (ref), 20 mg/day) was 1.47, the “Odds ratio, increase in ON time without troublesome dyskinesia (1 hour or longer)” value (age ≥65 vs <65 y (ref), 40 mg/day) was 2.88 and the “Odds ratio, OFF time reduction (1 hour or longer)” value (from here on “Odds ratio, OFF time reduction”) [1] was 2.65. For the same molecule, the “Odds ratio, improvement in CGI-I (very much, much or minimally improved)” value (“Odds ratio, improvement in CGI-I” for short) [1] was 1.17, the “Odds ratio, improvement in UPDRS Part II score (OFF)” value (shortened to “Odds ratio, improvement … (OFF)”) [1] was 0.90 and the “Odds ratio, improvement in UPDRS Part III score (3 points or more)” value (“Odds ratio, improvement … (3 points or more)” for short) [1] was 0.65. The “Odds ratio, OFF time reduction” value [2] was 0.88, the “Odds ratio, improvement in CGI-I” value [2] was 1.49 and the “Odds ratio, improvement … (OFF)” value [2] was 0.79. For the same molecule, the “Odds ratio, improvement … (3 points or more)” value [2] was 2.79, the “Odds ratio, increase in ON time without troublesome dyskinesia (1 hour or longer)” value [2] was 0.97 and the “Odds ratio, improvement … (OFF)” value (baseline m Hoehn & Yahr scale at OFF state ≥3 vs <3 (ref), 20 mg/day) was 0.99. The “Odds ratio, improvement … (OFF)” value (baseline m Hoehn & Yahr scale at OFF state ≥3 vs <3 (ref), 40 mg/day) was 3.50, the “Odds ratio, OFF time reduction” value [3] was 0.63 and the “Odds ratio, improvement in CGI-I” value [3] was 1.89. The “Odds ratio, improvement … (3 points or more)” value [3] was 1.81, the “Odds ratio, increase in ON time without troublesome dyskinesia (1 hour or longer)” value [3] was 0.60 and the “Odds ratio, OFF time reduction” value [4] was 1.27. The “Odds ratio, increase in ON time without troublesome dyskinesia (1 hour or longer)” value [4] was 1.09, the “Odds ratio, OFF time reduction” value [5] was 1.58 and the “Odds ratio, increase in ON time without troublesome dyskinesia (1 hour or longer)” value [5] was 0.58. The “Odds ratio, improvement in CGI-I” value [6] was 1.09, the “Odds ratio, improvement … (OFF)” value [6] was 1.00 and the “Odds ratio, improvement … (3 points or more)” value [6] was 0.85. For the same molecule, the “Odds ratio, OFF time reduction” value [7] was 1.57, the “Odds ratio, increase in ON time without troublesome dyskinesia (1 hour or longer)” value [7] was 1.19 and the “Odds ratio, OFF time reduction” value [8] was 6.68. The “Odds ratio, increase in ON time without troublesome dyskinesia (1 hour or longer)” value [8] was 2.38, the “Odds ratio, improvement in CGI-I” value [9] was 0.85 and the “Odds ratio, improvement … (OFF)” value [9] was 0.98. The “Odds ratio, improvement … (3 points or more)” value [9] was 0.53.

From patent US12527800B2, “Therapeutic agent for Parkinson's disease” (KYOWA KIRIN CO., LTD., priority 2019, dated 2026)
